Experimental data taken from patent US20240368163A1, “COMPOUNDS AND METHODS FOR MODULATING SPLICING” (REMIX THERAPEUTICS INC., priority 2021, published 2024).

How the values were obtained:
[1] = Transwell assay for membrane efflux and permeability; format: in vitro ADME, Canine; details: dog; MDCK-BCRP or MDCKII-MDR1 transwell, test compound 1 μM, 2 hours at 37° C.
Description: Compounds described herein were screened for cell membrane permeability and efflux in a transwell assay using Madin-Darby Canine Kidney (MDCK) cells expressing Breast Cancer Resistance Protein (BCRP) or subclone MDCKII cells expressing Multidrug Resistance Protein 1 (MDR1).
MDCK-BCRP or MDCKII-MDR1 Cells: The Netherlands Cancer Institute, High Glucose Dulbecco's Modified Eagle's Medium (DMEM): Gibco/Thermo Fisher Scientific, Fetal Bovine Serum (FBS): Coming, Hank's Balanced Salt Solution (HBSS) and Trypsin/EDTA: Gibco/Thermo Fisher Scientific, HTS Transwell-96 Well Permeable Supports: Coming Corporation, Millicell Epithelial Volt-Ohm: Millipore, Cellometer® Vision: Nexcelom Bioscience LLC, Infinite 200 PRO microplate reader: Tecan, MTS2/4 orbital shaker: IKA Labortechnik, HEPES/Penicillin/Streptomycin: Solarbio.
MDCK-BCRP or MDCKII-MDR1 cells were seeded to each of the wells of the transwell plate at a density of 1.6×10^6 cells/mL and the plate was incubated for 4-8 days with medium changes every two days. To perform the drug transport assay, cell monolayers were first washed three times with pre-warmed HBSS and then incubated with gentle shaking (150 rpm) for 30 min at 37° C. Stock solutions of test compounds (e.g., exemplary compounds of Formulas (I), (II), and (III)) and control compounds (e.g., metoprolol, prazosin, and/or imatinib) were prepared in DMSO and adjusted to a working solution using HBSS. The final concentration of test compounds was 1 μM with DMSO; 0.5%. The plates were incubated at 37° C. for 2 hours.

MYB = assay: HiBiT protein abundance assay, MYB; format: cell-based, human; details: Table 13A, modified K562 cells
How it was run: (§1)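 HiBiT knock-in K562, 10000 cells/well, 24 h cpd at 37 °C/5% CO2; 10-pt 3-fold series from 10 μM final; DMSO ≤0.25%. Lytic detection, luminescence read. 4PL fit → IC50 vs DMSO control; unmodified K562 = baseline.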

HTT = assay: HiBiT protein abundance assay, HTT; format: cell-based, human; details: Table 13A, modified K562 cells
How it was run: as §1

Target C = assay: HiBiT protein abundance assay, Target C; format: cell-based, human; details: Table 13A, modified K562 cells
How it was run: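 Luminescence from lytic HiBiT detection, taken after 24 h compound exposure at 37 °C, reports tagged protein abundance in knock-in cells seeded at 10000 cells/well. Doses spanned 10 points, 3-fold steps, top 10 μM final. A four-parameter logistic fit gave the 50% abundance concentration (IC50).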

Row | SMILES | Papp at 2 h, 1 μM [1] [×10⁻⁶ cm/s] | efflux ratio at 2 h, 1 μM [1] | IC50 (MYB; 24 hours) [nM] | IC50 (HTT; 24 hours) [nM] | IC50 (Target C; 24 hours) [nM] | IC50 (MYB; Homo sapiens, K562, 24 h) [nM] | IC50 (HTT; Homo sapiens, K562, 24 h) [nM] | IC50 (Target C; Homo sapiens, K562, 24 h) [nM]
1 | CN(c1ccc(-c2cc(F)c(-c3cn[nH]c3)c3cn[nH]c23)nn1)[C@@H]1C[C@H]2CC[C@@H](C1)N2 [Compound 147] | < 2 | > 5 | < 100 | < 100 | < 100 |  |  | 
2 | COc1cc(-c2ccc(-c3ccc(N(C)[C@@H]4C[C@H]5CC[C@@H](C4)N5)nn3)c3[nH]ncc23)ccn1 [Compound 385, (exo)-N-{6-[4-(2-methoxypyridin-4-yl)-1H-indazol-7-yl]pyridazin-3-yl}-N-methyl-8-azabicyclo[3.2.1]octan-3-amine] | < 2 | > 5 |  |  |  |  |  | 
3 | CN(c1ccc(-c2ccc(-c3cnn(C)c3)c3cn[nH]c23)nn1)[C@@H]1C[C@H]2CC[C@@H](C1)N2 [Compound 386, (exo)-N-methyl-N-{6-[4-(1-methylpyrazol-4-yl)-1H-indazol-7-yl]pyridazin-3-yl}-8-azabicyclo[3.2.1]octan-3-amine] | < 2 | > 5 |  |  |  | < 100 | < 100 | < 100
